{"source": "PubChem BioAssay AID2060483", "about": "(Molecular Pharmacology Branch, DTP, NCI, 2025)", "test_system": "K24384-001-R-PDC complex spheroids, viability", "assay": "Anticancer human tumor K24384-001-R-PDC patient-derived pancreatic adenocarcinoma cell line growth inhibition [GQUAD]", "conditions": "for IC50: curve of first compound; for viability, T/C: stronger effect = lower value", "how_it_was_run": "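Multi-cell-type spheroids of tumor cells with HUVEC and mesenchymal stem cells, treated with drug combinations. Concentrations descend in half-log steps from near clinical Cmax, or from 10 microM where Cmax is unknown; viability read-out.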", "key": {"[1]": {"conditions": "second compound 0.0316 µM, first compound 0.0316 µM"}, "[2]": {"conditions": "second compound 0.0316 µM, first compound 0.1 µM"}, "[3]": {"conditions": "second compound 0.0316 µM, first compound 0.316 µM"}, "[4]": {"conditions": "second compound 0.0316 µM, first compound 1 µM"}, "[5]": {"conditions": "second compound 0.0316 µM, first compound 3.16 µM"}, "[6]": {"conditions": "second compound 0.0316 µM, first compound 10 µM"}, "[7]": {"conditions": "second compound 0.1 µM, first compound 0.0316 µM"}, "[8]": {"conditions": "second compound 0.1 µM, first compound 0.1 µM"}, "[9]": {"conditions": "second compound 0.1 µM, first compound 0.316 µM"}, "[10]": {"conditions": "second compound 0.1 µM, first compound 1 µM"}, "[11]": {"conditions": "second compound 0.1 µM, first compound 3.16 µM"}, "[12]": {"conditions": "second compound 0.1 µM, first compound 10 µM"}, "[13]": {"conditions": "second compound 0.316 µM, first compound 0.0316 µM"}, "[14]": {"conditions": "second compound 0.316 µM, first compound 0.1 µM"}, "[15]": {"conditions": "second compound 0.316 µM, first compound 0.316 µM"}, "[16]": {"conditions": "second compound 0.316 µM, first compound 1 µM"}, "[17]": {"conditions": "second compound 0.316 µM, first compound 3.16 µM"}, "[18]": {"conditions": "second compound 0.316 µM, first compound 10 µM"}, "[19]": {"conditions": "second compound 1 µM, first compound 0.0316 µM"}, "[20]": {"conditions": "second compound 1 µM, first compound 0.1 µM"}, "[21]": {"conditions": "second compound 1 µM, first compound 0.316 µM"}, "[22]": {"conditions": "second compound 1 µM, first compound 1 µM"}, "[23]": {"conditions": "second compound 1 µM, first compound 3.16 µM"}, "[24]": {"conditions": "second compound 1 µM, first compound 10 µM"}, "[25]": {"conditions": "second compound 3.16 µM, first compound 0.0316 µM"}, "[26]": {"conditions": "second compound 3.16 µM, first compound 0.1 µM"}, "[27]": {"conditions": "second compound 3.16 µM, first compound 0.316 µM"}, "[28]": {"conditions": "second compound 3.16 µM, first compound 1 µM"}, "[29]": {"conditions": "second compound 3.16 µM, first compound 3.16 µM"}, "[30]": {"conditions": "second compound 3.16 µM, first compound 10 µM"}, "[31]": {"conditions": "second compound 10 µM, first compound 0.0316 µM"}, "[32]": {"conditions": "second compound 10 µM, first compound 0.1 µM"}, "[33]": {"conditions": "second compound 10 µM, first compound 0.316 µM"}, "[34]": {"conditions": "second compound 10 µM, first compound 1 µM"}, "[35]": {"conditions": "second compound 10 µM, first compound 3.16 µM"}, "[36]": {"conditions": "second compound 10 µM, first compound 10 µM"}}, "data": [{"compound": "C=CCn1c(=O)c2cnc(Nc3ccc(N4CCN(C)CC4)cc3)nc2n1-c1cccc(C(C)(C)O)n1", "note": "+ Cc1cnc(CNC(=O)c2c(=O)c3ccc(N4CCCN(C)CC4)nc3n3c2sc2ccccc23)cn1;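 also: spheroids exposed to compounds for seven days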", "values": [{"measurement": "IC50", "setting": "second compound 0.0316 µM", "value": 487, "unit": "nM"}, {"measurement": "IC50", "setting": "second compound 0.1 µM", "value": 350, "unit": "nM"}, {"measurement": "IC50", "setting": "second compound 0.316 µM", "value": "< 31.6", "unit": "nM"}, {"measurement": "IC50", "setting": "second compound 1 µM", "value": "< 31.6", "unit": "nM"}, {"measurement": "IC50", "setting": "second compound 3.16 µM", "value": "< 31.6", "unit": "nM"}, {"measurement": "IC50", "setting": "second compound 10 µM", "value": "< 31.6", "unit": "nM"}, {"measurement": "viability, T/C", "setting": "[1]", "value": 63.6, "unit": "%"}, {"measurement": "viability, T/C", "setting": "[2]", "value": 76.6, "unit": "%"}, {"measurement": "viability, T/C", "setting": "[3]", "value": 68.1, "unit": "%"}, {"measurement": "viability, T/C", "setting": "[4]", "value": 18.3, "unit": "%"}, {"measurement": "viability, T/C", "setting": "[5]", "value": 17.8, "unit": "%"}, {"measurement": "viability, T/C", "setting": "[6]", "value": 23.2, "unit": "%"}, {"measurement": "viability, T/C", "setting": "[7]", "value": 53.3, "unit": "%"}, {"measurement": "viability, T/C", "setting": "[8]", "value": 65.2, "unit": "%"}, {"measurement": "viability, T/C", "setting": "[9]", "value": 51.4, "unit": "%"}, {"measurement": "viability, T/C", "setting": "[10]", "value": 27.1, "unit": "%"}, {"measurement": "viability, T/C", "setting": "[11]", "value": 19.8, "unit": "%"}, {"measurement": "viability, T/C", "setting": "[12]", "value": 18.1, "unit": "%"}, {"measurement": "viability, T/C", "setting": "[13]", "value": 45.5, "unit": "%"}, {"measurement": "viability, T/C", "setting": "[14]", "value": 50.1, "unit": "%"}, {"measurement": "viability, T/C", "setting": "[15]", "value": 37.1, "unit": "%"}, {"measurement": "viability, T/C", "setting": "[16]", "value": 26.7, "unit": "%"}, {"measurement": "viability, T/C", "setting": "[17]", "value": 22.6, "unit": "%"}, {"measurement": "viability, T/C", "setting": "[18]", "value": 17.5, "unit": "%"}, {"measurement": "viability, T/C", "setting": "[19]", "value": 30.5, "unit": "%"}, {"measurement": "viability, T/C", "setting": "[20]", "value": 49.7, "unit": "%"}, {"measurement": "viability, T/C", "setting": "[21]", "value": 34.9, "unit": "%"}, {"measurement": "viability, T/C", "setting": "[22]", "value": 36.9, "unit": "%"}, {"measurement": "viability, T/C", "setting": "[23]", "value": 27.1, "unit": "%"}, {"measurement": "viability, T/C", "setting": "[24]", "value": 22.9, "unit": "%"}, {"measurement": "viability, T/C", "setting": "[25]", "value": 36.4, "unit": "%"}, {"measurement": "viability, T/C", "setting": "[26]", "value": 39.7, "unit": "%"}, {"measurement": "viability, T/C", "setting": "[27]", "value": 28.1, "unit": "%"}, {"measurement": "viability, T/C", "setting": "[28]", "value": 31.8, "unit": "%"}, {"measurement": "viability, T/C", "setting": "[29]", "value": 26, "unit": "%"}, {"measurement": "viability, T/C", "setting": "[30]", "value": 15.8, "unit": "%"}, {"measurement": "viability, T/C", "setting": "[31]", "value": 10, "unit": "%"}, {"measurement": "viability, T/C", "setting": "[32]", "value": 10.6, "unit": "%"}, {"measurement": "viability, T/C", "setting": "[33]", "value": 18, "unit": "%"}, {"measurement": "viability, T/C", "setting": "[34]", "value": 6.25, "unit": "%"}, {"measurement": "viability, T/C", "setting": "[35]", "value": 0.39, "unit": "%"}, {"measurement": "viability, T/C", "setting": "[36]", "value": 0.2, "unit": "%"}]}, {"compound": "COc1ncnc(C2CC2)c1-c1ncc2cnn(Cc3ccc(-c4nc(C(F)(F)F)cn4C(C)C)cc3)c2n1", "note": "+ Cc1cnc(CNC(=O)c2c(=O)c3ccc(N4CCCN(C)CC4)nc3n3c2sc2ccccc23)cn1", "values": [{"measurement": "IC50", "setting": "second compound 0.0316 µM", "value": "> 10000", "unit": "nM"}, {"measurement": "IC50", "setting": "second compound 0.1 µM", "value": "> 10000", "unit": "nM"}, {"measurement": "IC50", "setting": "second compound 0.316 µM", "value": "< 31.6", "unit": "nM"}, {"measurement": "IC50", "setting": "second compound 1 µM", "value": "< 31.6", "unit": "nM"}, {"measurement": "IC50", "setting": "second compound 3.16 µM", "value": "< 31.6", "unit": "nM"}, {"measurement": "IC50", "setting": "second compound 10 µM", "value": "< 31.6", "unit": "nM"}, {"measurement": "viability, T/C", "setting": "[1]", "value": 85.9, "unit": "%"}, {"measurement": "viability, T/C", "setting": "[2]", "value": 90.3, "unit": "%"}, {"measurement": "viability, T/C", "setting": "[3]", "value": 78, "unit": "%"}, {"measurement": "viability, T/C", "setting": "[4]", "value": 84.6, "unit": "%"}, {"measurement": "viability, T/C", "setting": "[5]", "value": 69.1, "unit": "%"}, {"measurement": "viability, T/C", "setting": "[6]", "value": 94.5, "unit": "%"}, {"measurement": "viability, T/C", "setting": "[7]", "value": 46.1, "unit": "%"}, {"measurement": "viability, T/C", "setting": "[8]", "value": 71, "unit": "%"}, {"measurement": "viability, T/C", "setting": "[9]", "value": 71.6, "unit": "%"}, {"measurement": "viability, T/C", "setting": "[10]", "value": 52.2, "unit": "%"}, {"measurement": "viability, T/C", "setting": "[11]", "value": 57.4, "unit": "%"}, {"measurement": "viability, T/C", "setting": "[12]", "value": 79.5, "unit": "%"}, {"measurement": "viability, T/C", "setting": "[13]", "value": 44.5, "unit": "%"}, {"measurement": "viability, T/C", "setting": "[14]", "value": 43.5, "unit": "%"}, {"measurement": "viability, T/C", "setting": "[15]", "value": 43.3, "unit": "%"}, {"measurement": "viability, T/C", "setting": "[16]", "value": 43.2, "unit": "%"}, {"measurement": "viability, T/C", "setting": "[17]", "value": 65.1, "unit": "%"}, {"measurement": "viability, T/C", "setting": "[18]", "value": 46.4, "unit": "%"}, {"measurement": "viability, T/C", "setting": "[19]", "value": 43.6, "unit": "%"}, {"measurement": "viability, T/C", "setting": "[20]", "value": 46.7, "unit": "%"}, {"measurement": "viability, T/C", "setting": "[21]", "value": 41, "unit": "%"}, {"measurement": "viability, T/C", "setting": "[22]", "value": 44.7, "unit": "%"}, {"measurement": "viability, T/C", "setting": "[23]", "value": 42.9, "unit": "%"}, {"measurement": "viability, T/C", "setting": "[24]", "value": 36.1, "unit": "%"}, {"measurement": "viability, T/C", "setting": "[25]", "value": 31.5, "unit": "%"}, {"measurement": "viability, T/C", "setting": "[26]", "value": 34, "unit": "%"}, {"measurement": "viability, T/C", "setting": "[27]", "value": 33, "unit": "%"}, {"measurement": "viability, T/C", "setting": "[28]", "value": 42.1, "unit": "%"}, {"measurement": "viability, T/C", "setting": "[29]", "value": 39.1, "unit": "%"}, {"measurement": "viability, T/C", "setting": "[30]", "value": 29, "unit": "%"}, {"measurement": "viability, T/C", "setting": "[31]", "value": 24, "unit": "%"}, {"measurement": "viability, T/C", "setting": "[32]", "value": 13.7, "unit": "%"}, {"measurement": "viability, T/C", "setting": "[33]", "value": 23.1, "unit": "%"}, {"measurement": "viability, T/C", "setting": "[34]", "value": 20.8, "unit": "%"}, {"measurement": "viability, T/C", "setting": "[35]", "value": 17.1, "unit": "%"}, {"measurement": "viability, T/C", "setting": "[36]", "value": 0.33, "unit": "%"}]}]}
